Measurements from ChEMBL document CHEMBL3045593, “Synthesis and Fungicidal Activities of 3-(-Alkoxyiminobenzyl)isoxazole Derivatives” (J Pestic Sci, 1999).

Legend:
[1] = tested on: Blumeria graminis f. sp. tritici; assay: Fungicidal activity against Blumeria graminis f. sp. triticii inoculated on wheat seedlings followed by 31.3 ppm compound application 7 days after fungal inoculation assessed as wheat powdery mildew disease controlling activity relative to untreated control; type: functional
[2] = tested on: Golovinomyces cichoracearum; assay: Fungicidal activity against Golovinomyces cichoracearum in cucumber seedlings assessed as cucumber powdery mildew disease controlling activity at 7.8 ppm applied through preventive application relative to untreated control; type: functional
[3] = tested on: Blumeria graminis f. sp. tritici; assay: Fungicidal activity against Blumeria graminis f. sp. triticii inoculated on wheat seedlings followed by 500 ppm compound application 7 days after fungal inoculation assessed as wheat powdery mildew disease controlling activity relative to untreated control; type: functional
[4] = tested on: Golovinomyces cichoracearum; assay: Fungicidal activity against Golovinomyces cichoracearum in cucumber seedlings assessed as cucumber powdery mildew disease controlling activity at 31.3 ppm applied through preventive application relative to untreated control; type: functional
[5] = tested on: Blumeria graminis f. sp. tritici; assay: Fungicidal activity against Blumeria graminis f. sp. triticii inoculated on wheat seedlings followed by 125 ppm compound application 7 days after fungal inoculation assessed as wheat powdery mildew disease controlling activity relative to untreated control; type: functional
[6] = tested on: Golovinomyces cichoracearum; assay: Fungicidal activity against Golovinomyces cichoracearum in cucumber seedlings assessed as cucumber powdery mildew disease controlling activity at 500 ppm applied through preventive application relative to untreated control; type: functional
[7] = tested on: Blumeria graminis f. sp. tritici; assay: Fungicidal activity against Blumeria graminis f. sp. triticii inoculated on wheat seedlings followed by 7.8 ppm compound application 7 days after fungal inoculation assessed as wheat powdery mildew disease controlling activity relative to untreated control; type: functional
[8] = tested on: Blumeria graminis f. sp. tritici; assay: Fungicidal activity against Blumeria graminis f. sp. triticii inoculated on wheat seedlings followed by 400 ppm compound application 7 days after fungal inoculation assessed as wheat powdery mildew disease controlling activity relative to untreated control; type: functional
[9] = tested on: Blumeria graminis f. sp. tritici; assay: Fungicidal activity against Blumeria graminis f. sp. triticii inoculated on wheat seedlings followed by 100 ppm compound application 7 days after fungal inoculation assessed as wheat powdery mildew disease controlling activity relative to untreated control; type: functional
Oculimacula yallundae [10] = assay: Fungicidal activity against Oculimacula yallundae inoculated oat seeds followed by transfer of inoculated oat seedlings on foot of wheat seedlings followed by 100 ppm compound spraying assessed as degree of wheat eye spot infection (reference value: 82.9 %); type: functional
Oculimacula yallundae [11] = assay: Fungicidal activity against Oculimacula yallundae inoculated oat seeds followed by transfer of inoculated oat seedlings on foot of wheat seedlings followed by 400 ppm compound spraying assessed as degree of wheat eye spot infection (reference value: 82.9 %); type: functional
Oculimacula yallundae [12] = assay: Fungicidal activity against Oculimacula yallundae assessed as inhibition of mycelial growth; type: functional, organism-based
Oculimacula yallundae [13] = assay: Fungicidal activity against Oculimacula yallundae inoculated oat seeds followed by transfer of inoculated oat seedlings on foot of wheat seedlings followed by 400 ppm compound spraying assessed as wheat eye spot disease control activity relative to untreated control; type: functional
Oculimacula yallundae [14] = assay: Fungicidal activity against Oculimacula yallundae inoculated oat seeds followed by transfer of inoculated oat seedlings on foot of wheat seedlings followed by 100 ppm compound spraying assessed as wheat eye spot disease control activity relative to untreated control; type: functional
[15] = tested on: Blumeria graminis f. sp. tritici; assay: Fungicidal activity against Blumeria graminis f. sp. triticii inoculated on wheat seedlings followed by 400 ppm compound application 7 days after fungal inoculation assessed as infected leaf area (reference value: 37.8%); type: functional
[16] = tested on: Blumeria graminis f. sp. tritici; assay: Fungicidal activity against Blumeria graminis f. sp. triticii inoculated on wheat seedlings followed by 100 ppm compound application 7 days after fungal inoculation assessed as infected leaf area (reference value: 37.8%); type: functional
[17] = tested on: Golovinomyces cichoracearum; assay: Fungicidal activity against Golovinomyces cichoracearum in cucumber seedlings assessed as cucumber powdery mildew disease controlling activity at 125 ppm applied through preventive application relative to untreated control; type: functional
[18] = tested on: Blumeria graminis f. sp. tritici; assay: Fungicidal activity against Blumeria graminis f. sp. triticii inoculated on wheat seedlings followed by 125 ppm compound application 7 days after fungal inoculation assessed as infected leaf area (reference value: 37.8%); type: functional

Row | SMILES | Activity [2] | Activity [3] | Activity [4] | Activity [5] | further results
1 | CON=C(c1ccon1)c1ccccc1COc1cc(Cl)ccc1Cl | 90% |  |  |  | Activity [1]: 90%
2 | CON=C(c1ccon1)c1ccccc1COc1c(Cl)cccc1Cl |  | <90% | 90% |  | 
3 | CON=C(c1ccon1)c1ccccc1COc1ccc(Cl)c(Cl)c1 |  |  | 90% | 90% | 
4 | CON=C(c1ccon1)c1ccccc1COc1cc(Cl)cc(Cl)c1Cl |  | <90% |  |  | Activity [6]: 90%
5 | CON=C(c1ccon1)c1ccccc1COc1cccc(C)c1C | 90% |  |  | 90% | 
6 | CON=C(c1ccon1)c1ccccc1COc1ccc(C)cc1C | 90% |  |  | 90% | 
7 | CON=C(c1ccon1)c1ccccc1COc1cc(C)ccc1C | 90% |  |  |  | Activity [7]: 90%; Activity [8]: 86%; Activity [9]: 78%; Activity (Oculimacula yallundae [10]): 36.9%; Activity (Oculimacula yallundae [11]): 19.8%; EC50 (Oculimacula yallundae [12]): 1.05 ppm; Activity (Oculimacula yallundae [13]): 76%; Activity (Oculimacula yallundae [14]): 56%; Activity [15]: 5.8%; Activity [16]: 9.3%
8 | CON=C(c1ccon1)c1ccccc1COc1c(C)cccc1C |  |  |  | 90% | Activity [17]: 90%
9 | CON=C(c1ccon1)c1ccccc1COc1ccc(C)c(C)c1 |  |  | 90% | 90% | 
10 | CON=C(c1ccon1)c1ccccc1COc1cc(C)cc(C)c1C | 90% |  |  |  | Activity [7]: 90%; EC50 (Oculimacula yallundae [12]): 3.9 ppm
11 | CON=C(c1ccon1)c1ccccc1COc1ccc(Cl)cc1C | 90% |  |  |  | Activity [1]: 90%
12 | Cc1ccc(C)c(OCc2ccccc2C(=NO)c2ccon2)c1 |  | <90% |  |  | Activity [17]: 90%
13 | CCON=C(c1ccon1)c1ccccc1COc1cc(C)ccc1C |  | <90% |  |  | Activity [6]: <90%
14 | CCCON=C(c1ccon1)c1ccccc1COc1cc(C)ccc1C |  | <90% |  |  | Activity [6]: <90%
15 | Cc1ccc(C)c(OCc2ccccc2C(=NOC(C)C)c2ccon2)c1 |  | <90% |  |  | Activity [6]: <90%
16 | C=CCON=C(c1ccon1)c1ccccc1COc1cc(C)ccc1C |  | <90% |  |  | Activity [6]: <90%
17 | CNC(=O)/C(=N/OC)c1ccccc1COc1cc(C)ccc1C |  |  |  |  | Activity [8]: 63%; Activity [9]: 69%; Activity (Oculimacula yallundae [10]): 66.5%; Activity (Oculimacula yallundae [11]): 36.7%; EC50 (Oculimacula yallundae [12]): 1.09 ppm; Activity (Oculimacula yallundae [13]): 56%; Activity (Oculimacula yallundae [14]): 20%; Activity [15]: 15.5%; Activity [16]: 13%
18 | CON=C(c1ccon1)c1ccccc1COc1ccc(Cl)cc1 | 90% | 90% |  |  | 
19 | CON=C(c1ccon1)c1ccccc1COc1ccccc1C | 90% |  |  |  | Activity [7]: 90%; EC50 (Oculimacula yallundae [12]): 1.42 ppm
20 | CON=C(c1ccon1)c1ccccc1COc1cccc(C)c1 |  |  | 90% | 90% | 

Row | SMILES | Activity [2] | Activity [3] | Activity [4] | Activity [5] | further results
21 | CON=C(c1ccon1)c1ccccc1COc1ccc(C)cc1 | 90% |  |  | 90% | 
22 | CCc1ccccc1OCc1ccccc1C(=NOC)c1ccon1 |  |  | 90% | 90% | 
23 | CON=C(c1ccon1)c1ccccc1COc1ccccc1OC |  | <90% |  |  | Activity [17]: 90%
24 | CON=C(c1ccon1)c1ccccc1COc1ccccc1Br | 90% |  |  | 90% | 
25 | CON=C(c1ccon1)c1ccccc1COc1ccccc1C(F)(F)F |  | 90% | 90% |  | 
26 | CON=C(c1ccon1)c1ccccc1COc1ccccc1[N+](=O)[O-] |  | <90% |  |  | Activity [6]: <90%
27 | CON=C(c1ccon1)c1ccccc1COc1ccc(F)cc1F | 90% |  |  | 90% | 
28 | CON=C(c1ccon1)c1ccccc1COc1cc(F)ccc1F |  |  | 90% | 90% | 
29 | CON=C(c1ccon1)c1ccccc1COc1ccc(Cl)cc1Cl | 90% | <90% |  |  | 
30 | CON=C(c1ccon1)c1ccccc1Oc1ccccc1 |  | 90% | 90% |  | 
31 | CON=C(c1ccon1)c1ccccc1OCc1ccccc1 |  |  |  |  | Activity [17]: 90%
32 | CON=C(c1ccon1)c1ccccc1COc1ccccc1 |  | 90% | 90% |  | 
33 | CON=C(c1ccon1)c1ccccc1COc1ccc(F)cc1 |  | 90% | 90% |  | 
34 | CON=C(c1ccon1)c1ccccc1COc1cccc(F)c1 |  | 90% |  |  | Activity [17]: 90%
35 | CON=C(c1ccon1)c1ccccc1COc1ccccc1F |  |  | 90% | 90% | 
36 | CON=C(c1ccon1)c1ccccc1COc1ccccc1Cl | 90% |  |  | 90% | 
37 | CON=C(c1ccon1)c1ccccc1COc1cccc(Cl)c1 |  | 90% | 90% |  | 
38 | CCCN(CCOc1c(Cl)cc(Cl)cc1Cl)C(=O)n1ccnc1 [PROCHLORAZ] |  |  |  |  | Activity (Oculimacula yallundae [10]): 63.5%; Activity (Oculimacula yallundae [11]): 28.3%; EC50 (Oculimacula yallundae [12]): 0.04 ppm; Activity (Oculimacula yallundae [13]): 66%; Activity (Oculimacula yallundae [14]): 23%
39 | CC(C)(C)C(=O)C(Oc1ccc(Cl)cc1)n1cncn1 (stereo not drawn) [TRIADIMEFON] |  |  |  | 97% | Activity [18]: 1.4%
